Assay results as given in ChEMBL document CHEMBL1135541, “Synthesis, biological properties, and molecular modeling investigation of the first potent, selective, and water-soluble human A(3) adenosine receptor antagonist” (J Med Chem, 2002).

Legend:
[1] = molecular target: Adenosine receptors; A2b & A3 (Homo sapiens) (UniProt P29275+P0DMS8); assay: Selectivity as ratio of Ki for human A2b and A3 receptors; type: protein assay
[2] = molecular target: Adenosine receptors; A1 & A3 (Homo sapiens) (UniProt P30542+P0DMS8); assay: Selectivity as ratio of Ki for human adenosine A1 and A3 receptors; type: protein assay
Adenosine receptor A3 [3] = molecular target: T1, Adenosine receptor A3 (Homo sapiens, UniProt P0DMS8); assay: Inhibitory activity against Human Adenosine A3 receptor expressed in CHO cells; type: cell-based
T1 sequence (P0DMS8 whole entry): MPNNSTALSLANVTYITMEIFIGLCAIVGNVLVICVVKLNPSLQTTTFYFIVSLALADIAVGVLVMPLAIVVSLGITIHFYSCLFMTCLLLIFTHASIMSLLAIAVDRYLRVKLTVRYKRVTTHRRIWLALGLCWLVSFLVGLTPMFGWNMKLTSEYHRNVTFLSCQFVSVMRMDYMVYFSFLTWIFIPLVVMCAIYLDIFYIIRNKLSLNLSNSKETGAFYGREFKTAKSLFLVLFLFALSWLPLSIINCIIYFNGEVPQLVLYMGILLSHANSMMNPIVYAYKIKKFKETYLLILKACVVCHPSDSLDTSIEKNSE

[4] = molecular target: Adenosine receptors; A2a & A3 (Homo sapiens) (UniProt P0DMS8+P29274); assay: Selectivity as ratio of Ki for human adenosine A2A and A3 receptors; type: protein assay
Adenosine receptor A1 = molecular target: T2, Adenosine receptor A1 (Rattus norvegicus, UniProt P25099); assay: Binding affinity against rat adenosine A1 receptor […]; type: cell-based
T2 sequence (P25099 whole entry): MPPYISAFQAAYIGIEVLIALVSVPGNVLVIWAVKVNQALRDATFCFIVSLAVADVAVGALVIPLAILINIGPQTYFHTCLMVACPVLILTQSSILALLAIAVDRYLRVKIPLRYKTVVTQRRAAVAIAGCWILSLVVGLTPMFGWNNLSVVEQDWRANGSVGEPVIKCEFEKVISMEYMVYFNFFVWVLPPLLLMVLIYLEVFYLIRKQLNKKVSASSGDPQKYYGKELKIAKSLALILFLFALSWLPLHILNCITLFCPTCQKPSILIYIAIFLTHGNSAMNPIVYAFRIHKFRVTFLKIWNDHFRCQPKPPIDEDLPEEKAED

Adenosine receptor A3 [5] = molecular target: T3, Adenosine receptor A3 (Rattus norvegicus, UniProt P28647); assay: Binding affinity against rat adenosine A3 receptor in RBL-2H3 cells; type: cell-based
T3 sequence (P28647 whole entry): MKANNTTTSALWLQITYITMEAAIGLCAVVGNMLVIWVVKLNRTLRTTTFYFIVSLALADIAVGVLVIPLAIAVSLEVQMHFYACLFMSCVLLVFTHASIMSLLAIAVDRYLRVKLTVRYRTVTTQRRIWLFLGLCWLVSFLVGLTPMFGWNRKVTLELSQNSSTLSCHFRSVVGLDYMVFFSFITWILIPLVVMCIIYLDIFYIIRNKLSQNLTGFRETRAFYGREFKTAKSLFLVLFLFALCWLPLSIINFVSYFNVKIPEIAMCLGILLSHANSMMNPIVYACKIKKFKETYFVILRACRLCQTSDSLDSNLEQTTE

[6] = The hydrophobicity was measured in reverse-phase TLC experiments and reported as Rm values; Rm = log(1/Rf - 1)
[7] = molecular target: T4, Adenosine receptor A3 (Homo sapiens) (UniProt P0DMS8); settings: CHO
T4 sequence (whole entry): T1 sequence (P0DMS8 whole entry)
Description: Antagonistic activity against Cl-IB-MECA26-induced inhibition of forskolin-stimulated cAMP in CHO cells expressing human Adenosine A3 receptor

Adenosine receptor A2a = Adenosine receptor A2a (Rattus norvegicus, UniProt P30543); assay: Binding affinity against rat adenosine A2A receptor […]; type: cell-based
[8] = molecular target: T5, Adenosine receptor A3 (Rattus norvegicus) (UniProt P28647); settings: RBL-2H3, 1 uM
T5 sequence (whole entry): T3 sequence (P28647 whole entry)
Description: Inhibitory activity against binding of [125I]I-AB-MECA to Adenosine A3 receptor in membranes of rat basophilic RBL-2H3 cells at 1 uM

Sequence of Adenosine receptors; A2a & A3 (Homo sapiens) (P29274 whole entry, looked up, one chain of several): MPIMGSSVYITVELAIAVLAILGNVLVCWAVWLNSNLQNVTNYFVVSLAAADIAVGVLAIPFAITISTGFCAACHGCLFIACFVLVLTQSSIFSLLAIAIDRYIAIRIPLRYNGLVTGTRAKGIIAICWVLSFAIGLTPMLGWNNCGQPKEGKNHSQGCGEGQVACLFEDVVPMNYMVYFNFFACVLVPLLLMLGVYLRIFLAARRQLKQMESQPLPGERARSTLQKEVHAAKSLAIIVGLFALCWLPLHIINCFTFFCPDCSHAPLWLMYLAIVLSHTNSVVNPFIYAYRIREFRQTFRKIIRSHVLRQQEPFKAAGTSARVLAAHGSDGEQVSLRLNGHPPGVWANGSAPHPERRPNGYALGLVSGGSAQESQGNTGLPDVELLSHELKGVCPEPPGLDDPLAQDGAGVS
Sequence of Adenosine receptor A2a (P30543 whole entry): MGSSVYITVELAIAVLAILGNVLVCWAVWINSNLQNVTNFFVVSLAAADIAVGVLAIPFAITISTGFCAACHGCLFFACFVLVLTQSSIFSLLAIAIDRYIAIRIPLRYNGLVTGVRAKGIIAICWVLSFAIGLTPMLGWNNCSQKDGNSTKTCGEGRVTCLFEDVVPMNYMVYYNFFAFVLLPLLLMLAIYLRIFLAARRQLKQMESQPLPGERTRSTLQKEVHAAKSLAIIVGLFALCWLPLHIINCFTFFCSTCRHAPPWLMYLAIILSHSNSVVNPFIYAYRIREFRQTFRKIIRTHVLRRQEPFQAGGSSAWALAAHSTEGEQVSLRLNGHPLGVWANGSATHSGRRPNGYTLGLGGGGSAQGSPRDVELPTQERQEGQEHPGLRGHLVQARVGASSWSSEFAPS

With `Cn1cc2c(nc(NC(=O)Nc3ccccc3)n3nc(-c4ccco4)nc23)n1` the Selectivity [1] was 1390, the Selectivity [2] was 3710 and the IC50 (Adenosine receptor A3 [3]) was 0.0021 µM. For the same compound, the Selectivity [4] was 2380.
For `Cn1cc2c(nc(NC(=O)Nc3ccncc3)n3nc(-c4ccco4)nc23)n1`, the Ki (Adenosine receptor A1) was 0.226 µM, the Ki (Adenosine receptor A3 [5]) was > 1 µM and the Rm [6] was 3.06. The K B [7] was 0.2 nM, the Ki (Adenosine receptor A2a) was 0.0976 µM and the inhibition [8] was 35%.
In the case of `Cn1cc2c(nc(NC(=O)Nc3ccc(S(=O)(=O)O)cc3)n3nc(-c4ccco4)nc23)n1`, the Selectivity [1] is reported as > 400, the Selectivity [2] is reported as > 400 and the Selectivity [4] is reported as 24.
